Measured values taken from patent US6794371B1, “Aminoalkylenephosphonates for treatment of bone disorders” (The Dow Chemical Company, priority 1999, dated 2004).

Tested on: ovariectomized rats (bone mineral density)
Assay: Ovariectomized rat osteoporosis model, bone mineral density by dual energy X-ray absorptiometry (DEXA) (Example 2)
Conditions: 5 mg/kg
Description: Eleven week old Female Sprague-Dawley laboratory rats (75) were fed a commercial rat diet and were allowed to drink water ad libitum. They were housed in pairs in an air-conditioned environment, and were allowed to enjoy 14 hours of illumination per day. Ten rats were sham-operated and were used as “non-osteopenic” control rats. All of the other rats were ovariectomized at 12 weeks of age. All surgeries were done under injectable anesthesia. […] The remaining rats were given various phosphonate compounds in groups of ten.
The rats were given doses three times during the first week and once a week thereafter.
All other compounds were dosed at 5 mg/kg. In this study, bone mineral density was determined by dual energy X-ray absorptiometry (DEXA).

Row | SMILES | bone mineral density (BMD) over the study period, relative to OVX control group
1 | O=P(O)(O)CN(Cc1ccccn1)CP(=O)(O)O [AMPDMP, N,N-bis(methylenephosphonic acid)-2-(aminomethyl)pyridine] | look even better
2 | O=P(O)(O)CN1Cc2cccc(n2)CN(CP(=O)(O)O)Cc2cccc(n2)C1 [BP2MP, N,N′-bis(methylenephosphonic acid)-2,11-diaza[3.3](2,6)pyridinophane] | look even better
